{"source": "paper PMC7383614", "about": "“Computational Design of Enantiocomplementary Epoxide Hydrolases for Asymmetric Synthesis of Aliphatic and Aromatic Diols” (Chembiochem, 2020)", "target": "T1, LEH-P (thermostable limonene epoxide hydrolase) (Rhodococcus erythropolis, UniProt Q9ZAG3, T2A/S15P/A19K/E45K/T76K/T85V/N92K/Y96F, form not given)", "T1 construct": "gene limA; N-terminal hexa-His tag; expressed in E. coli; dimeric", "T1 sequence (Q9ZAG3 whole entry T2A/S15P/A19K/E45K/T76K/T85V/N92K/Y96F, form open)": "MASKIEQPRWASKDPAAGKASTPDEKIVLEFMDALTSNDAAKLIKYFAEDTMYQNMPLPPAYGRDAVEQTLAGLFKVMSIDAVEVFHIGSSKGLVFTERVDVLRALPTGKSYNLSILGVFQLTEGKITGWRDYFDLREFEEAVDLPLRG", "experiment": "initial velocities of diol formation, Michaelis-Menten fit", "format": "biochemical", "details": "buffer and temperature of kinetics not given (activity assays: 50 mM HEPES pH 8, 30 °C); variant SS16 from earlier study, mutations not given; read-out: K M [mM] ^[b]", "excerpt": "initial velocities of diol formation, Michaelis-Menten fit on LEH-P (thermostable limonene epoxide hydrolase)"}
{"smiles": "C1CC2OC2C1", "note": "(stereo not shown) [1 a, cyclopentene oxide]", "values": [{"measurement": "Km", "result": "54 ± 4", "unit": "mM"}]}
